Source: patent US20080096894A1, “Anti-Bacterial Compounds” (ASTON UNIVERSITY, priority 2005, published 2008)
Values after ≈ are worked out from the molar mass of the structure shown. Where two headings read alike, the source gives them in different places.

Legend:
Test in all cases: MIC, agar dilution, multipoint inoculator
[1] = system: S. aureus; assay type: cell-based, Staphylococcus aureus; details: upper value of MIC reading
Experimental: (§1) This activity was measured using a multipoint inoculator method as follows. The MIC for each compound was measured using an agar dilution method (Onda, H., et al., Int. J. Antimicrob. Agents. 18, 263 (2001)) (Mueller Hinton agar) by means of a multipoint inoculator delivering 10^4 colony forming units per spot.

[2] = system: MRSA; assay type: cell-based, methicillin-resistant Staphylococcus aureus
Experimental: as §1
‘Staph’ refers to the reference strain of S. aureus (NCTC 6571). A tick in the MRSA column refers to a positive zone against MRSA strain 96-7474, and the MIC range (in μg/ml) which follows is that found against a panel of ten MRSA strains. Where MIC values are given for MRSA, these are stated as a range of values, as testing was carried out on a panel of clinical isolates.

[3] = system: E. faecium; assay type: cell-based, Enterococcus faecium; details: upper value of MIC reading
Experimental: as §1

[4] = system: S. epidemisis; assay type: cell-based, Staphylococcus epidermidis; details: upper value of MIC reading
Experimental: as §1

[5] = system: B. bronchiseptica; assay type: cell-based; details: B. bronchiseptica NCTC 8344; upper value of MIC reading
Experimental: as §1

[6] = system: E. faecalis; assay type: cell-based; details: upper value of MIC reading
Experimental: as §1

[7] = system: S. aboni; assay type: cell-based; details: S. aboni NCTC 6017; upper value of MIC reading
Experimental: as §1

[8] = system: S. haemolyticus; assay type: cell-based; details: S. haemolyticus Isolate 1, upper value of MIC reading
Experimental: as §1

[9] = system: S. maltophilia; assay type: cell-based; details: S. maltophilia NCTC 10257, upper value of MIC reading
Experimental: as §1

[10] = system: K. pneumoniae; assay type: cell-based, Klebsiella pneumoniae; details: K. pneumoniae 327; upper value of MIC reading
Experimental: as §1

[11] = system: S. marcesens; assay type: cell-based, Serratia marcescens; details: S. marcesens 4444, upper value of MIC reading
Experimental: as §1

[12] = system: P. auriginosa; assay type: cell-based, Pseudomonas aeruginosa; details: P. auriginosa NCTC 6749, upper value of MIC reading
Experimental: as §1

[13] = system: E. cloacae; assay type: cell-based, Enterobacter cloacae; details: E. cloacae NCTC 11582; upper value of MIC reading
Experimental: as §1

[14] = system: E. coli; assay type: cell-based, Escherichia coli; details: Escherichia coli, 18 h, upper value of MIC reading
Experimental: as §1

[15] = MRSA Isolate 1, upper value of MIC reading, in µg/mL
[16] = MRSA Isolate 2, upper value of MIC reading, in µg/mL
[17] = MRSA Isolate 3, upper value of MIC reading, in µg/mL
[18] = MRSA Isolate 4, upper value of MIC reading, in µg/mL
[19] = MRSA Isolate 5, upper value of MIC reading, in µg/mL
[20] = MRSA Isolate 6, upper value of MIC reading, in µg/mL
[21] = MRSA Isolate 7, upper value of MIC reading, in µg/mL
[22] = MRSA Isolate 8, upper value of MIC reading, in µg/mL
[23] = MRSA Isolate 9, upper value of MIC reading, in µg/mL
[24] = MRSA Isolate 10, upper value of MIC reading, in µg/mL

**Q.** How did the MIC ([1]; S. aureus Cowan 1) turn out when `Oc1cc(O)c(C=NNc2ccccn2)c(O)c1` [HDcd] was run?
**A.** 256 µg/mL (≈ 1040 µM)

**Q.** What about the MIC ([1]; S. aureus NCTC 6571) of the same compound?
**A.** 256 µg/mL (≈ 1040 µM)

**Q.** And the MIC ([1]; S. aureus NCTC 10788)?
**A.** 256 µg/mL (≈ 1040 µM)

**Q.** What about the MIC [2, 15] of the same compound?
**A.** 256

**Q.** And the MIC [2, 16]?
**A.** 256

**Q.** What about the MIC [2, 17] of the same compound?
**A.** 256

**Q.** And the MIC [2, 18]?
**A.** 256

**Q.** And the MIC [2, 19]?
**A.** 256

**Q.** And the MIC [2, 20]?
**A.** 256

**Q.** What about the MIC [2, 21] of the same compound?
**A.** 256

**Q.** And the MIC [2, 22]?
**A.** 256

**Q.** What about the MIC [2, 23] of the same compound?
**A.** 256

**Q.** And the MIC [2, 24]?
**A.** 256

**Q.** And the “MRSA MIC range” value ([2]; panel of ten MRSA strains (clinical isolates))?
**A.** 128 to 256 µg/mL

**Q.** And the MIC ([3]; E. faecium ACTCC 10541)?
**A.** 256 µg/mL (≈ 1040 µM)

**Q.** What about the MIC ([3]; E. faecium NCTC 7171) of the same compound?
**A.** 256 µg/mL (≈ 1040 µM)

**Q.** And the MIC ([4]; S. epidemisis Isolate 1)?
**A.** 128 µg/mL (≈ 522 µM)

**Q.** And the MIC ([4]; S. epidemisis NCTC 11047)?
**A.** 128 µg/mL (≈ 522 µM)

**Q.** What about the MIC [5] of the same compound?
**A.** 256 µg/mL (≈ 1040 µM)

**Q.** What about the MIC ([6]; E. faecalis EBH1) of the same compound?
**A.** 256 µg/mL (≈ 1040 µM)

**Q.** What about the MIC ([6]; E. faecalis Isolate 1) of the same compound?
**A.** 128 µg/mL (≈ 522 µM)

**Q.** And the MIC ([6]; E. faecalis Isolate 2)?
**A.** 128 µg/mL (≈ 522 µM)

**Q.** And the MIC ([6]; E. faecalis Isolate 3)?
**A.** 128 µg/mL (≈ 522 µM)

**Q.** And the MIC ([6]; E. faecalis Isolate 4)?
**A.** 256 µg/mL (≈ 1040 µM)

**Q.** What about the MIC ([6]; E. faecalis Isolate 5) of the same compound?
**A.** 128 µg/mL (≈ 522 µM)

**Q.** What about the MIC ([6]; E. faecalis NCTC 5957) of the same compound?
**A.** 256 µg/mL (≈ 1040 µM)

**Q.** And the MIC [7]?
**A.** 128 µg/mL (≈ 522 µM)

**Q.** And the MIC [8]?
**A.** 128 µg/mL (≈ 522 µM)

**Q.** And the MIC [9]?
**A.** 128 µg/mL (≈ 522 µM)

**Q.** And the MIC [10]?
**A.** 256 µg/mL (≈ 1040 µM)

**Q.** And the MIC [11]?
**A.** 256 µg/mL (≈ 1040 µM)

**Q.** And the MIC [12]?
**A.** 256 µg/mL (≈ 1040 µM)

**Q.** And the MIC [13]?
**A.** 256 µg/mL (≈ 1040 µM)

**Q.** Which results are given for `CCC(C)(C)c1ccc(/C=N/N=C(\N)c2cccnc2)cc1` [Compound 3PYaf, N^1-[4-(1,1-dimethylpropyl)benzylidene]-pyridine-3-carboxamidrazone]?
**A.** MIC ([1]; Staphylococcus aureus, 18 h, S. aureus Cowan 1, read-out: MIC): 64 µg/mL (≈ 217 µM); MIC ([1]; Staphylococcus aureus, NCTC6571, 18 h, S. aureus NCTC 6571, read-out: MIC): 64 µg/mL (≈ 217 µM); MIC ([1]; Staphylococcus aureus, NCTC10788, 18 h, S. aureus NCTC 10788, read-out: MIC): 64 µg/mL (≈ 217 µM); MIC ([2]; Staphylococcus aureus, 18 h, MRSA Isolate 1, upper value of MIC reading, read-out: MIC): 64 µg/mL (≈ 217 µM); MIC ([2]; Staphylococcus aureus, 18 h, MRSA Isolate 2, upper value of MIC reading, read-out: MIC): 64 µg/mL (≈ 217 µM); MIC ([2]; Staphylococcus aureus, 18 h, MRSA Isolate 3, upper value of MIC reading, read-out: MIC): 64 µg/mL (≈ 217 µM); MIC ([2]; Staphylococcus aureus, 18 h, MRSA Isolate 4, upper value of MIC reading, read-out: MIC): 64 µg/mL (≈ 217 µM); MIC ([2]; Staphylococcus aureus, 18 h, MRSA Isolate 5, upper value of MIC reading, read-out: MIC): 64 µg/mL (≈ 217 µM); MIC ([2]; Staphylococcus aureus, 18 h, MRSA Isolate 6, upper value of MIC reading, read-out: MIC): 64 µg/mL (≈ 217 µM); MIC ([2]; Staphylococcus aureus, 18 h, MRSA Isolate 7, upper value of MIC reading, read-out: MIC): 64 µg/mL (≈ 217 µM); MIC ([2]; Staphylococcus aureus, 18 h, MRSA Isolate 8, upper value of MIC reading, read-out: MIC): 64 µg/mL (≈ 217 µM); MIC ([2]; Staphylococcus aureus, 18 h, MRSA Isolate 9, upper value of MIC reading, read-out: MIC): 64 µg/mL (≈ 217 µM); MIC ([2]; Staphylococcus aureus, 18 h, MRSA Isolate 10, upper value of MIC reading, read-out: MIC): 64 µg/mL (≈ 217 µM); MIC ([2]; Staphylococcus aureus, MRSA, 18 h, panel of ten MRSA strains (clinical isolates), read-out: MRSA MIC range): 32 to 64 µg/mL (≈ 109 to 217 µM); MIC ([3]; Enterococcus faecium, 18 h, E. faecium ACTCC 10541, read-out: MIC): 64 µg/mL (≈ 217 µM); MIC ([3]; Enterococcus faecium, NCTC7171, 18 h, E. faecium NCTC 7171, read-out: MIC): 64 µg/mL (≈ 217 µM); MIC ([4]; Staphylococcus epidermidis, 18 h, S. epidemisis Isolate 1, read-out: MIC): 128 µg/mL (≈ 435 µM); MIC ([4]; Staphylococcus epidermidis, NCTC11047, 18 h, S. epidemisis NCTC 11047, read-out: MIC): 32 µg/mL (≈ 109 µM); MIC ([6]; Enterococcus faecalis, 18 h, E. faecalis EBH1, read-out: MIC): 128 µg/mL (≈ 435 µM); MIC ([6]; Enterococcus faecalis, 18 h, E. faecalis Isolate 1, read-out: MIC): 64 µg/mL (≈ 217 µM); MIC ([6]; Enterococcus faecalis, 18 h, E. faecalis Isolate 2, read-out: MIC): 64 µg/mL (≈ 217 µM); MIC ([6]; Enterococcus faecalis, 18 h, E. faecalis Isolate 4, read-out: MIC): 128 µg/mL (≈ 435 µM); MIC ([6]; Enterococcus faecalis, 18 h, E. faecalis Isolate 5, read-out: MIC): 128 µg/mL (≈ 435 µM); MIC ([6]; Enterococcus faecalis, NCTC5957, 18 h, E. faecalis NCTC 5957, read-out: MIC): 64 µg/mL (≈ 217 µM); MIC ([8]; Staphylococcus haemolyticus, 18 h, read-out: MIC): 64 µg/mL (≈ 217 µM); MIC ([9]; Stenotrophomonas maltophilia, NCTC10257, 18 h, read-out: MIC): 64 µg/mL (≈ 217 µM); MIC ([14]; E. coli W3110R+): 64 µg/mL (≈ 217 µM); MIC ([14]; E. coli W3110R−): 64 µg/mL (≈ 217 µM); MIC ([11]; Serratia marcescens, 18 h, read-out: MIC): 256 µg/mL (≈ 870 µM); MIC ([12]; Pseudomonas aeruginosa, NCTC6749, 18 h, read-out: MIC): 64 µg/mL (≈ 217 µM)

**Q.** How did the MIC ([1]; S. aureus Cowan 1) turn out when `O=Cc1cc([N+](=O)[O-])ccc1O` [cj] was run?
**A.** 16 µg/mL (≈ 95.7 µM)

**Q.** What about the MIC ([1]; S. aureus NCTC 6571) of the same compound?
**A.** 4 µg/mL (≈ 23.9 µM)

**Q.** And the MIC ([1]; S. aureus NCTC 10788)?
**A.** 2 µg/mL (≈ 12 µM)

**Q.** What about the MIC [2, 15] of the same compound?
**A.** 2

**Q.** What about the MIC [2, 16] of the same compound?
**A.** 4

**Q.** What about the MIC [2, 17] of the same compound?
**A.** 2

**Q.** And the MIC [2, 18]?
**A.** 2

**Q.** And the MIC [2, 19]?
**A.** 2

**Q.** What about the MIC [2, 20] of the same compound?
**A.** 4

**Q.** And the MIC [2, 21]?
**A.** 4

**Q.** And the MIC [2, 22]?
**A.** 4

**Q.** And the MIC [2, 23]?
**A.** 4

**Q.** And the MIC [2, 24]?
**A.** 4

**Q.** What about the MIC ([4]; S. epidemisis Isolate 1) of the same compound?
**A.** 2 µg/mL (≈ 12 µM)

**Q.** And the MIC ([4]; S. epidemisis NCTC 11047)?
**A.** 2 µg/mL (≈ 12 µM)

**Q.** What about the MIC [5] of the same compound?
**A.** 256 µg/mL (≈ 1530 µM)

**Q.** And the MIC ([6]; E. faecalis Isolate 1)?
**A.** 256 µg/mL (≈ 1530 µM)

**Q.** And the MIC ([6]; E. faecalis Isolate 5)?
**A.** 256 µg/mL (≈ 1530 µM)

**Q.** And the MIC [7]?
**A.** 1 µg/mL (≈ 5.98 µM)

**Q.** What about the MIC [9] of the same compound?
**A.** 256 µg/mL (≈ 1530 µM)

**Q.** What about the MIC [10] of the same compound?
**A.** 256 µg/mL (≈ 1530 µM)

**Q.** What about the MIC [12] of the same compound?
**A.** 256 µg/mL (≈ 1530 µM)

**Q.** What about the MIC [13] of the same compound?
**A.** 256 µg/mL (≈ 1530 µM)
